Source: patent US7531320B2, “Modulation of β-catenin/TCF-activated transcription” (priority 2003, dated 2009)

Biological target: T1, p300 (1-111) (Homo sapiens, UniProt Q09472)
T1 construct: 6xHis (C); HSV tag (C); expressed in transfected cells
Assay: Pull-down of p300 deletion constructs on COMPOUND 2 coated beads, competition with excess COMPOUND 1
Assay type: binding
Details: p300 (1-111), (1-211), (1-351) in SW480 lysates, 150 μM COMPOUND 1
Procedure: FIG. 2. The first 111 amino acids of CBP, but not p300, specifically bind COMPOUND 1. • A. Schematic representation of the wild-type and deletion constructs for CBP. • B. CBP (1-111) contains the minimal binding domain of COMPOUND 1. Expression levels of CBP deletion constructs in SW480 cells are shown (upper panel). 10 μg of total protein was subjected to gel electrophoresis and subjected to immunoblotting using anti-His antibodies. Whole cell lysates of SW480 cells expressing CBP deletion constructs were bound to streptavidin-agarose beads coated with 100 μM of COMPOUND 2. The bound fractions were subjected to gel electrophoresis and immunoblotting using anti-His antibodies (lower panel). Arrows point to constructs which remained bound to COMPOUND 2 coated beads. • C. […] CBP deletion constructs, CBP(1-111),CBP (1-211), and CBP (1-351) and p300 deletion constructs, p300 (1-111), p300 (1-211), and p300 (1-351) were transfected into SW480 cells. Whole cell lysates were incubated with streptavidin-agarose beads or streptavidin-agarose beads coated with 100 μM COMPOUND 2 (lower panel). The binding of CBP constructs (1-111,1-211, and 1-351) and p300 constructs (1-111,1-211, and 1-351) to the beads was challenged with excess COMPOUND 1 (150 μM). • D. CBP (1-111) binds to COMPOUND 1 in a phosphorylation independent manner. […]

T1 sequence (Q09472 1-117): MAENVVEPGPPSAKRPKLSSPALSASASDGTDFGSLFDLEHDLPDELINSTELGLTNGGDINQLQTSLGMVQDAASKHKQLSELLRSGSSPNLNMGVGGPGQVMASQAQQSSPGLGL

In the case of O=C1C(Cc2ccc(O)cc2)N2C(=O)CCN(C(=O)NCc3ccccc3)C2CN1Cc1cccc2ccccc12 (stereo not shown) [COMPOUND 1], the “Competition of p300 fragment binding to COMPOUND 2 beads by excess COMPOUND 1” value is reported as “failed to have any effect”.
